Reference: ChEMBL document CHEMBL1151550, “High-affinity FKBP-12 ligands derived from (R)-()-carvone. Synthesis and evaluation of FK506 pyranose ring replacements” (Bioorg Med Chem Lett, 1995)

molecular target: Peptidyl-prolyl cis-trans isomerase FKBP1A (Homo sapiens, UniProt P62942); assay: Inhibitory activity of compound against FK506 binding protein 12 was determined; conditions: read-out: Ki app
Sequence (P62942 whole entry): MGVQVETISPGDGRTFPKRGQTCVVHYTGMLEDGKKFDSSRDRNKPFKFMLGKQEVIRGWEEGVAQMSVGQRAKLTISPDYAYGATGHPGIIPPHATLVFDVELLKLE

SMILES	Ki
COC(CC(C)C)[C@@H]1CC[C@@H](C)[C@](O)(C(=O)C(=O)N2CCCC[C@H]2C(=O)OCc2ccccc2)C1 (stereo partly specified)	2.8 nM
COC(C=C(C)C)[C@@H]1CC[C@@H](C)[C@](O)(C(=O)C(=O)N2CCCC[C@H]2C(=O)OCc2ccccc2)C1 (stereo partly specified)	68 nM
COC[C@@H]1CC[C@@H](C)[C@](O)(C(=O)C(=O)N2CCCC[C@H]2C(=O)OCc2ccccc2)C1	258 nM
COC(C)[C@@H]1CC[C@@H](C)[C@](O)(C(=O)C(=O)N2CCCC[C@H]2C(=O)OCc2ccccc2)C1 (stereo partly specified)	81 nM
C/C=C\C(OC)[C@@H]1CC[C@@H](C)[C@](O)(C(=O)C(=O)N2CCCC[C@H]2C(=O)OCc2ccccc2)C1 (stereo partly specified)	112 nM
CC(C)[C@@H]1CC[C@@H](C)[C@](O)(C(=O)C(=O)N2CCCC[C@H]2C(=O)OCc2ccccc2)C1	210 nM
